Laboratory results as given in patent US9975888B2, “Aryl linked imidazole and triazole derivatives and methods of use thereof for improving the pharmacokinetics of a drug” (MERCK SHARP & DOHME CORP., priority 2013, dated 2018).

Legend:
Type in all cases: biochemical
CYP3A4 [1] = biological target: T1, CYP3A4 (Homo sapiens, UniProt P08684); assay: IC50 vs CYP3A by inhibition of lopinavir metabolism in human liver microsomes; parameters: 0.01 mg/mL protein human liver microsomes (BD Gentest); tissue BD Gentest; host or cells: human liver microsomes; settings: 1.5 μM lopinavir, 0.01 mg/mL human liver microsomes, 8 min at 37° C.; read-out: CYP IC50 (nM) 3A4 (LPV)
Protocol: Determination of IC50 vs CYP3A by Measurement of Inhibition of Lopinavir Metabolism
This assay was performed in a standard 96-well plate design. IC50 values were calculated from the percent inhibition observed for each test compound at 6 concentrations (for example, 0.098, 0.391, 1.56, 6.25, 25 and 100 nM). The incubation substrate mix contains 1.5 μM lopinavir, 0.01 mg/mL protein human liver microsomes (BD Gentest), 1 mM NAPDH, 3.3 mM MgCl2 and 100 mM potassium phosphate buffer (pH 7.4). The production of the sum of three hydroxylated metabolites (M2: 6-hydroxy lopinavir, M3: 4-hydroxy lopinavir, M4: 4-hydroxy lopinavir (epimer of M3), Kumar et al., 1999) was determined after incubation for 8 min at 37° C. Quantitation of the metabolite peak area ratio against an internal standard (tolbutamide) was determined by LC/MS/MS analysis following acetonitrile treatment of the incubations.
(§1) Samples were analyzed in the MRM mode with a SCIEX API-4000 mass spectrometer (Applied Biosystems, Foster City, Calif.), with a Shimadzu LC-20 AD pump (Shimadzu corporation, Kyoto, JP) and a CTC PAL autosampler (Agilent Technologies, Switzerland). A Phenomenex, Luna, 5 μm, 100 A, 2.00×30 mm HPLC column was used for the separation. The mobile phases were: (A) 0.1% formic acid in water and (B) 0.1% formic acid in acetonitrile. The binary gradient was as follows.
The peak area ratio of the analyte to the internal standard was used to quantify the metabolite. The values of peak area ratios in the presence of test compound were compared to those of maximum or minimum controls and were expressed as % inhibition by interpolating between the maximum and minimum peak area ratios. Incubations with no inhibitor were defined as the maxima and with 5 μM ketoconazole were defined as the minima.
The following equation was used to calculate the % inhibition: [1−[(X−Low control)/(High control−Low control)]]*100
For the IC50 calculation, SigmaPlot was used to plot the mean % inhibition versus the test compound concentrations and for non-linear regression analysis of the data. Depending on the range of data points defining the inhibition curve, the data may have been fit to the 4-parameter logistic equation.
Target sequence in this assay (P08684 2-503): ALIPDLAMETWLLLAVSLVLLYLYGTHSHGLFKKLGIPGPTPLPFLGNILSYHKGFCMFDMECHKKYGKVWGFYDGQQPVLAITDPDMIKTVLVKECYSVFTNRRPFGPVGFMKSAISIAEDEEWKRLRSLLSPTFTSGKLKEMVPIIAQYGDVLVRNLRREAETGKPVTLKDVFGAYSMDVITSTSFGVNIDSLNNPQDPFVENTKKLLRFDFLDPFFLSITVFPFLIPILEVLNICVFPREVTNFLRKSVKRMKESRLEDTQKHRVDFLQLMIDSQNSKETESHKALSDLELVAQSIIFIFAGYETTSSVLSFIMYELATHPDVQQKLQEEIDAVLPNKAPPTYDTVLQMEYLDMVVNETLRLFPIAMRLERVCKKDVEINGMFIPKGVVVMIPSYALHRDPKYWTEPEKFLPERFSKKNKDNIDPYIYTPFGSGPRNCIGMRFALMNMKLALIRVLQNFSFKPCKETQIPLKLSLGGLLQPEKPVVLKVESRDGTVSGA

CYP2C9 = biological target: T2, CYP2C9 (Homo sapiens, UniProt P11712); assay: Cocktail assay for CYPs, diclofenac 4′-hydroxylation (CYP2C9), human liver microsomes; settings: 5 μM diclofenac, 0.1 mg/mL human liver microsomes, 10 min at 37° C.; read-out: CYP IC50 (nM) 2C9
T2 construct: 0.1 mg/mL protein human liver microsomes (BD Gentest); tissue BD Gentest; host or cells: human liver microsomes
Protocol: (§2) Determination of IC50 in a Cocktail Assay for CYPs 1A2, 2C9, 2C19, 2D6 and 3A4:
(§3) This assay was performed in a standard 96-well plate design. […] The incubation substrate mix contains 10 μM phenacetin (1A2), 5 μM diclofenac (2C9), 30 μM mephenytoin (2C19), 5 μM dextromethorphan (2D6) and 2 μM midazolam (3A4), 0.1 mg/mL protein human liver microsomes (BD Gentest), 1 mM NAPDH, 3.3 mM MgCl2 and 100 mM potassium phosphate buffer (pH 7.4). The production of the metabolite of each probe substrate was determined after incubation for 10 min at 37° C. Quantitation of the metabolite peak area ratio against an internal standard (tolbutamide) was determined by LC/MS/MS analysis following acetonitrile treatment of the incubations.
as §1, with “[…],” for “μm,”
(§4) The peak area ratio of the analyte to the internal standard was used to quantify the metabolite. The values of peak area ratios in the presence of test compound were compared to those of maximum or minimum controls and were expressed as % inhibition by interpolating between the maximum and minimum peak area ratios. Incubations with no inhibitor were defined as the maxima. The following equation was used to calculate the % inhibition: [1−[(X−Low control)/(High control−Low control)]]*100 For the IC50 calculation, SigmaPlot was used to plot the mean % inhibition versus the test compound concentrations and for non-linear regression analysis of the data. Depending on the range of data points defining the inhibition curve, the data may have been fit to the 4-parameter logistic equation.

CYP2D6 = biological target: T3, CYP2D6 (Homo sapiens, UniProt P10635); assay: Cocktail assay for CYPs, dextromethorphan O-demethylation (CYP2D6), human liver microsomes; settings: 5 μM dextromethorphan, 0.1 mg/mL human liver microsomes, 10 min at 37° C.; read-out: CYP IC50 (nM) 2D6
T3 construct: 0.1 mg/mL protein human liver microsomes (BD Gentest); tissue BD Gentest; host or cells: human liver microsomes
Protocol: as §2
(§5) This assay was performed in a standard 96-well plate design. IC50 values were calculated from the percent inhibition observed for each test compound at 6 concentrations (for example, 0.0032, 0.016, 0.08, 0.4, 2 and 10 μM). The incubation substrate mix contains 10 μM phenacetin (1A2), 5 μM diclofenac (2C9), 30 μM mephenytoin (2C19), 5 μM dextromethorphan (2D6) and 2 μM midazolam (3A4), 0.1 mg/mL protein human liver microsomes (BD Gentest), 1 mM NAPDH, 3.3 mM MgCl2 and 100 mM potassium phosphate buffer (pH 7.4). The production of the metabolite of each probe substrate was determined after incubation for 10 min at 37° C. Quantitation of the metabolite peak area ratio against an internal standard (tolbutamide) was determined by LC/MS/MS analysis following acetonitrile treatment of the incubations.
as §1, with “[…],” for “μm,”
as §4

CYP3A4 [2] = biological target: T1, CYP3A4; assay: Cocktail assay for CYPs, midazolam 1′-hydroxylation (CYP3A4), human liver microsomes; parameters: 0.1 mg/mL protein human liver microsomes (BD Gentest); tissue BD Gentest; host or cells: human liver microsomes; settings: 2 μM midazolam, 0.1 mg/mL human liver microsomes, 10 min at 37° C.; read-out: CYP IC50 (nM) 3A4 (MDZ)
Protocol: as §2, §5
as §1, with “[…],” for “μm,”
as §4
Target sequence in this assay (P08684 whole entry): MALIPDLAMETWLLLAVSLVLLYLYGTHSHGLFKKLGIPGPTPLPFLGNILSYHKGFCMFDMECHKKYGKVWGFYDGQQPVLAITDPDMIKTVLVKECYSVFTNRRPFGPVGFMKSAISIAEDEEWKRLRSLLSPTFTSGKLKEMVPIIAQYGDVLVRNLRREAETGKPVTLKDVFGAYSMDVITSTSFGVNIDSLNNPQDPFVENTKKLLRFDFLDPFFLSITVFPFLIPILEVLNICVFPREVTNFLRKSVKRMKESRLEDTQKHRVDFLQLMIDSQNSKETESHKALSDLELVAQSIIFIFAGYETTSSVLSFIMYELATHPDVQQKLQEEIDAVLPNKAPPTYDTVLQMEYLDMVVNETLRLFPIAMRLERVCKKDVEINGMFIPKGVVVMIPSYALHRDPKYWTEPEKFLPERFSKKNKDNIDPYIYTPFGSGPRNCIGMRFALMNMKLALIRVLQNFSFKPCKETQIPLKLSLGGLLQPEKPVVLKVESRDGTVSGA

CYP1A2 = biological target: T4, CYP1A2 (Homo sapiens, UniProt P05177); assay: Cocktail assay for CYPs, phenacetin O-deethylation (CYP1A2), human liver microsomes; settings: 10 μM phenacetin, 0.1 mg/mL human liver microsomes, 10 min at 37° C.; read-out: CYP IC50 (nM) 1A2
T4 construct: 0.1 mg/mL protein human liver microsomes (BD Gentest); tissue BD Gentest; host or cells: human liver microsomes
T4 sequence (P05177 1-516): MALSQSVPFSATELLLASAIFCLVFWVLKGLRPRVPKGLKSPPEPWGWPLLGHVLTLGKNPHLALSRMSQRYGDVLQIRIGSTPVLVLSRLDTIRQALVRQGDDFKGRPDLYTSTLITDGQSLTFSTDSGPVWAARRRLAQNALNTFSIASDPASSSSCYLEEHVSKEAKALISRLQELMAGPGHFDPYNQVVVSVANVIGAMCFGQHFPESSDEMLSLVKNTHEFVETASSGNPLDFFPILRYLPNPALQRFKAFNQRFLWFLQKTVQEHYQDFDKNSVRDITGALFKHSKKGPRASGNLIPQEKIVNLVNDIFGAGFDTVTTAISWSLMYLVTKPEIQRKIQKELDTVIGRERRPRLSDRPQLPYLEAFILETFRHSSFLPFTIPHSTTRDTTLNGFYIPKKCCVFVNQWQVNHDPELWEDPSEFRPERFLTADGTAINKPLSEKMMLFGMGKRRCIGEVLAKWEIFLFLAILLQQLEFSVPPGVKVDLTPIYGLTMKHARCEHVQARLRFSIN
Protocol: as §2, §5
as §1, with “[…],” for “μm,”
as §4

CYP2C19 = biological target: T5, CYP2C19 (Homo sapiens, UniProt P33261); assay: Cocktail assay for CYPs, mephenytoin 4′-hydroxylation (CYP2C19), human liver microsomes; settings: 30 μM mephenytoin, 0.1 mg/mL human liver microsomes, 10 min at 37° C.; read-out: CYP IC50 (nM) 2C19
T5 construct: 0.1 mg/mL protein human liver microsomes (BD Gentest); tissue BD Gentest; host or cells: human liver microsomes
Protocol: as §2, §3
as §1, with “[…],” for “μm,”
as §4

T2 sequence (P11712 whole entry): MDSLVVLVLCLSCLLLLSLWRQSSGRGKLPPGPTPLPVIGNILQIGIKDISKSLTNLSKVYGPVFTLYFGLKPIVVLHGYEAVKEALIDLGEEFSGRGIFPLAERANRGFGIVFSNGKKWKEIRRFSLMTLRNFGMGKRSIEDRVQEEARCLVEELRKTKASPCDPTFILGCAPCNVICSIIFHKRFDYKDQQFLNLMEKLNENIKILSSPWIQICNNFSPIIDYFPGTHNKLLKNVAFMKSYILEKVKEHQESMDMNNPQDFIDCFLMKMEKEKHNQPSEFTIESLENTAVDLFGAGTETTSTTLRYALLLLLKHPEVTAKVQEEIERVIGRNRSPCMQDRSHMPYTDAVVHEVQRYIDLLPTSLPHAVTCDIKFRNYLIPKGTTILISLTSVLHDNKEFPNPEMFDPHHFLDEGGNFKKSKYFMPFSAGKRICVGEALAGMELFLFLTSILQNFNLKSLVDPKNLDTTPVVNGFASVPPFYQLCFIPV
T5 sequence (P33261 whole entry): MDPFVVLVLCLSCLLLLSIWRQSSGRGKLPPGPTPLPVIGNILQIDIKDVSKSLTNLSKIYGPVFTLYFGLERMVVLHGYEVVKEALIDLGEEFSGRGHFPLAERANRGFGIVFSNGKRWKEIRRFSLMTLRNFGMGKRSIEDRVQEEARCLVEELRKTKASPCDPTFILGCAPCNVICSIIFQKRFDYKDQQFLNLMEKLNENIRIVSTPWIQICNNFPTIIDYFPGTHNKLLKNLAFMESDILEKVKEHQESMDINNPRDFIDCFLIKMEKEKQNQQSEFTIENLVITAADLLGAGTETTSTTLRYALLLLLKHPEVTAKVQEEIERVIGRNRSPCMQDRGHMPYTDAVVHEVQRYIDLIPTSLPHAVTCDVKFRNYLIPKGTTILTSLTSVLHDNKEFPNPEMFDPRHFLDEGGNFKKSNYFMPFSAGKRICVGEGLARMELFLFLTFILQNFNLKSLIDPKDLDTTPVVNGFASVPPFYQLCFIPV
T3 sequence (P10635 whole entry): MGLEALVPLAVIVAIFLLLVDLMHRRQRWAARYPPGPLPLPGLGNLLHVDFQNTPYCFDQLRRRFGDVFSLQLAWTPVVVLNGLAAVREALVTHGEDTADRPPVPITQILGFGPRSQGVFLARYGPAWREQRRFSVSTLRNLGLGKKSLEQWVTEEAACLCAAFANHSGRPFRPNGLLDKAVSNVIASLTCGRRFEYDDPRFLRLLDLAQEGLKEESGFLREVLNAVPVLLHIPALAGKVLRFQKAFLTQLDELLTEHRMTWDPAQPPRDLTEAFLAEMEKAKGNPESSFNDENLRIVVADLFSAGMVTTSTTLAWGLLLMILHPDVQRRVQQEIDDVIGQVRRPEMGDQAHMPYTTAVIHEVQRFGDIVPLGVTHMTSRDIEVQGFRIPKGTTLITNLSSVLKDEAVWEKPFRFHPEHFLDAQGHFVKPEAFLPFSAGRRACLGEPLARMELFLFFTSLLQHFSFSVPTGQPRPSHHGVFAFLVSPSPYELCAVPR

| SMILES | IC50 (CYP3A4 [1]) [nM] | IC50 (CYP2C9) [nM] | IC50 (CYP2D6) [nM] | IC50 (CYP3A4 [2]) [nM] | IC50 (CYP1A2) [nM] | IC50 (CYP2C19) [nM] |
| --- | --- | --- | --- | --- | --- | --- |
| O=C(C1CC1)N1CCCC1c1ccccc1-c1cncn1CCc1ccc(F)cc1 (single isomer, unassigned) [Compound 44a, (R or S)-cyclopropyl(2-(2-(1-(4-fluorophenethyl)-1H-imidazol-5-yl)phenyl)pyrrolidin-1-yl)methanone] | 20.1 | > 10000 | > 10000 | 46.6 | > 10000 | 6520 |
| O=C(C1CC1)N1CCCC1c1ccccc1-c1cncn1CCc1ccc(F)cc1 (single isomer, unassigned) [Compound 44b, (R or S)-cyclopropyl(2-(2-(1-(4-fluorophenethyl)-1H-imidazol-5-yl)phenyl)pyrrolidin-1-yl)methanone] | 6.4 | 5900 | > 10000 | 6.7 | > 10000 | 7130 |
| CC(C)NC(=O)N1CCCC1c1ccccc1-c1cncn1CCc1ccc(F)cc1 (single isomer, unassigned) [Compound 46a, (R or S)-2-(2-(1-(4-fluorophenethyl)-1H-imidazol-5-yl)phenyl)-N-isopropyl-pyrrolidine-1-carboxamide] | 45.3 | > 10000 | > 10000 | 58.5 | > 10000 | > 10000 |
| CC(C)NC(=O)N1CCCC1c1ccccc1-c1cncn1CCc1ccc(F)cc1 (single isomer, unassigned) [Compound 46b, (R or S)-2-(2-(1-(4-fluorophenethyl)-1H-imidazol-5-yl)phenyl)-N-isopropyl-pyrrolidine-1-carboxamide] | 6.2 | > 10000 | > 10000 | 6.1 | > 10000 | > 10000 |
| O=C(c1cccnc1)N1CCCC1c1cccc(-c2cncn2CCc2ccc(F)cc2)c1 (single isomer, unassigned) [Compound 48a, (R or S)-(2-(3-(1-(4-fluorophenethyl)-1H-imidazol-5-yl)phenyl)pyrrolidin-1-yl) (pyridin-3-yl) methanone] | 32.3 | > 10000 | 6800 | 24.2 | 9300 | 5430 |
| O=C(c1cccnc1)N1CCCC1c1cccc(-c2cncn2CCc2ccc(F)cc2)c1 (single isomer, unassigned) [Compound 48b, (R or S)-(2-(3-(1-(4-fluorophenethyl)-1H-imidazol-5-yl)phenyl)pyrrolidin-1-yl) (pyridin-3-yl) methanone] | > 100 | 9840 | 3880 | 41.2 | > 10000 | 4800 |
| O=C(C1CCOCC1)N1CCCC1c1cccc(-c2cncn2CCc2ccc(F)cc2)c1 (single isomer, unassigned) [Compound 49a, (R or S)-(2-(3-(1-(4-fluorophenethyl)-1H-imidazol-5-yl)phenyl)pyrrolidin-1-yl)(tetrahydro-2H-pyran-4-yl)methanone] | 29.6 | 9740 | 4700 | 30.1 | > 10000 | 3830 |
| O=C(C1CCOCC1)N1CCCC1c1cccc(-c2cncn2CCc2ccc(F)cc2)c1 (single isomer, unassigned) [Compound 49b, (R or S)-(2-(3-(1-(4-fluorophenethyl)-1H-imidazol-5-yl)phenyl)pyrrolidin-1-yl)(tetrahydro-2H-pyran-4-yl)methanone] | > 100 | > 10000 | > 10000 | 58.6 | > 10000 | 6910 |
| COc1ccc(OC)c(S(=O)(=O)N2CCCC2c2cccc(-c3cncn3CCc3ccc(F)cc3)c2)c1 (single isomer, unassigned) [Compound 53a, (R or S)-5-(3-(1-((2,5-dimethoxyphenyl)sulfonyl)pyrrolidin-2-yl)phenyl)-1-(4-fluorophenethyl)-1H-imidazole] | 2 | 165 | 1370 | 8.65 | 1080 | 78.6 |
| COc1ccc(OC)c(S(=O)(=O)N2CCCC2c2cccc(-c3cncn3CCc3ccc(F)cc3)c2)c1 (single isomer, unassigned) [Compound 53b, (R or S)-5-(3-(1-((2,5-Dimethoxy-phenyl)sulfonyl)pyrrolidin-2-yl)phenyl)-1-(4-fluorophenethyl)-1H-imidazole] | 2.1 | 216 | 2330 | 5.47 | 1470 | 149 |
